From BindingDB's records for doi:10.7270/Q2W37TR5 (Nmmlsc, 2009) come the findings set out here.

The first assay has as its target Ras-related C3 botulinum toxin substrate 1 (Mus musculus, UniProt P63001). The assay can be described thus: wildtype Rac1 GTP binding inhibitors, SAR follow-up, biochemical, additional analogs, multiplex bead flow cytometry (AID 2040).
Conditions: not given
(A flow cytometer gives signals particle by particle.)
Consider `O=C1Nc2c(Cl)cccc2C1=C1Nc2ccccc2C1=O`, for which a half-maximal effect (EC50) was put at 30 µM.
Same read-out and setting: with `O=C1Nc2c(Br)cccc2C1=C1Nc2ccccc2C1=O` the figure was 30 µM.
In the case of `O=C1Nc2c(F)cccc2C1=C1Nc2ccccc2C1=O`, the half-maximal effective concentration (EC50) is 34.6 µM.
On the same count and under the same terms, with `O=C1NC(=O)/C(=C2/C(=O)Nc3ccccc32)N1` the figure was 2.64 µM; with `O=C1Nc2ccc(Br)cc2C1=C1Nc2ccccc2C1=O`, 16.1 µM.
Compound `O=C1Nc2ccccc2/C1=C1/Nc2ccccc2C1=O` [2-[(3Z)-2-oxo-2,3-dihydro-1H-indol-3-ylidene]-2,3-dihydro-1H-indol-3-one] registered a half-maximal effective concentration (EC50) of 30 µM.
The same measure, in the same setting: with `O=C1N=c2ccccc2=C1c1[nH]c2ccccc2c1NO` [3-[3-(hydroxyamino)-1H-indol-2-yl]-2-indolone] the figure was 30 µM.
The same measure, in the same setting: with `O=C1N=c2ccc(Br)cc2=C1c1[nH]c2ccccc2c1NO` [5-bromanyl-3-[3-(oxidanylamino)-1H-indol-2-yl]indol-2-one] the figure was 30 µM; with `O=C1N=c2c(Br)cccc2=C1c1[nH]c2ccccc2c1NO` [7-bromanyl-3-[3-(oxidanylamino)-1H-indol-2-yl]indol-2-one], 30 µM; with `O=C1N=c2c(Cl)cccc2=C1c1[nH]c2ccccc2c1NO` [7-chloro-3-[3-(hydroxyamino)-1H-indol-2-yl]-2-indolone], 30 µM.
Same read-out and setting: for `O=C1N=c2c(F)cccc2=C1c1[nH]c2ccccc2c1NO` [7-fluoro-3-[3-(hydroxyamino)-1H-indol-2-yl]-2-indolone] the value was 30 µM; for `O=C1NC(=S)N/C1=C1\C(=O)Nc2ccccc21` [(3Z)-3-(5-oxo-2-sulfanylideneimidazolidin-4-ylidene)-1H-indol-2-one], 1.67 µM; for `C[C@@H](C(=O)O)c1cccc(Oc2ccccc2)c1` [calcium;2-(3-phenoxyphenyl)propanoic acid;hydrate], 30 µM.

Staying with this assay, now noted: inactive by the depositor's call.
On to `O=C1Nc2cccc(Br)c2/C1=C1/Cc2ccccc2C1=O`, for which the EC50 was 12.1 µM.
On the same count and under the same terms, with `COc1ccc(S(=O)(=O)n2c(N)c(C#N)c(-c3ccccc3)c2C(=O)c2ccc(Br)cc2)cc1` the figure was 30 µM; with `O=[N+]([O-])c1ccc(C#Cc2ccccc2)cc1`, 30 µM; with `O=C(C#Cc1ccccc1)c1ccc(OC(F)(F)F)cc1`, 30 µM.
Same read-out and setting: for `COc1ccc(C(=O)C#Cc2ccccc2)cc1` [1-(4-methoxyphenyl)-3-phenyl-2-propyn-1-one] the value was 30 µM; for `O=C(C#Cc1ccccc1)c1ccc([N+](=O)[O-])cc1` [1-(4-nitrophenyl)-3-phenyl-2-propyn-1-one], 30 µM; for `COc1ccc2cc(CC(=O)O)ccc2c1` [2-(6-methoxynaphthalen-2-yl)ethanoic acid], 30 µM.
On to `CC(=O)Oc1ccccc1C(=O)O` [2-(acetyloxy)benzoic acid], for which the midpoint of the response, the EC50, lay at 30 µM.
Same read-out and setting: for `CCCCS(=O)(=O)n1c(N)c(C#N)c(-c2cc(OC)c(OC)c(OC)c2)c1C(=O)c1ccccc1` [2-amino-5-benzoyl-1-butylsulfonyl-4-(3,4,5-trimethoxyphenyl)-3-pyrrolecarbonitrile] the value was 30 µM; for `COc1ccc(S(=O)(=O)n2c(N)c(C#N)c(-c3cncc(Br)c3)c2C(=O)c2ccccc2)cc1` [2-amino-5-benzoyl-4-(5-bromo-3-pyridinyl)-1-(4-methoxyphenyl)sulfonyl-3-pyrrolecarbonitrile], 9.84 µM; for `COc1ccc(-c2c(C#N)c(N)n(S(C)(=O)=O)c2C(=O)c2ccccc2)cc1Br` [2-azanyl-4-(3-bromanyl-4-methoxy-phenyl)-1-methylsulfonyl-5-(phenylcarbonyl)pyrrole-3-carbonitrile], 30 µM.
Consider `COc1cc(-c2c(C#N)c(N)n(S(=O)(=O)c3c(C(C)C)cc(C(C)C)cc3C(C)C)c2C(=O)c2ccccc2)cc(OC)c1OC` [2-azanyl-5-(phenylcarbonyl)-4-(3,4,5-trimethoxyphenyl)-1-[2,4,6-tri(propan-2-yl)phenyl]sulfonyl-pyrrole-3-carbonitrile], for which the concentration for a half-maximal effect (EC50) amounted to 75.3 µM.
`O=C(C#Cc1ccccc1)c1cccnc1` [3-phenyl-1-pyridin-3-ylprop-2-yn-1-one] yielded a half-maximal effective concentration (EC50) of 30 µM.
Still for that read-out and setting: for `COC(=O)c1ccc(C(=O)C#Cc2ccccc2)cc1` [4-(1-oxo-3-phenylprop-2-ynyl)benzoic acid methyl ester] the value was 30 µM; for `N#Cc1ccc(C(=O)C#Cc2ccccc2)cc1` [4-(3-phenylprop-2-ynoyl)benzenecarbonitrile], 30 µM; for `O=C1Nc2c(Br)cccc2/C1=C1/Cc2ccccc2C1=O` [(3E)-7-bromo-3-(3-oxo-1H-inden-2-ylidene)-1H-indol-2-one], 30 µM.
The same measure, in the same setting: with `O=C1Nc2ccccc2/C1=C1/Cc2ccccc2C1=O` [UNM-0000305763] the figure was 30 µM; with `N#Cc1c(-c2ccc(Cl)cc2)c(C(=O)c2ccccc2)n(S(=O)(=O)c2ccc([N+](=O)[O-])cc2)c1N` [UNM-0000305780], 30 µM; with `COc1ccc(S(=O)(=O)n2c(N)c(C#N)c(-c3cc(Br)c(OC)c(OC)c3)c2C(=O)c2ccccc2)cc1` [UNM-0000305782], 30 µM.
The compound `O=C(C#Cc1ccccc1)c1ccccc1[N+](=O)[O-]` [UNM-0000306038] yielded an EC50 of 30 µM.
On the same count and under the same terms, for `O=C(C#Cc1ccccc1)c1ccccc1` [UNM-0000306039] the value was 30 µM.
Still for that read-out and setting: with `O=C(C#Cc1ccccc1)c1ccc(Cl)cc1` [UNM-0000306055] the figure was 30 µM.
Still for that read-out and setting: for `O=C(C#Cc1ccccc1)c1ccc(F)cc1` [UNM-0000306059] the value was 30 µM; for `CC1=C(CC(=O)O)c2cc(F)ccc2/C1=C/c1ccc([S+](C)[O-])cc1` (stereo not drawn) [UNM-0000306136], 30 µM; for `CSc1ccc(/C=C2/C(C)=C(CC(=O)O)c3cc(F)ccc32)cc1` [{6-Fluoro-2-methyl-3-[1-(4-methylsulfanyl-phenyl)-meth-(E)-ylidene]-3H-inden-1-yl}-acetic acid], 54.7 µM.

Usually EC50 stands for the concentration at which the effect is half-maximal.
